Data taken from ChEMBL document CHEMBL4229345, “Inhibition of trypanosome alternative oxidase without its N-terminal mitochondrial targeting signal (ΔMTS-TAO) by cationic and non-cationic 4-hydroxybenzoate and 4-alkoxybenzaldehyde derivatives active against T. brucei and T. congolense” (Eur J Med Chem, 2018).
pEC50, pIC50, pKi: −log10 of the molar value. Converted amounts (≈) assume the structure as drawn.

Assays:
[1] = test system: Trypanosoma brucei brucei; assay: Resistance factor, ratio of EC50 for bloodstream trypomastigote stage of Trypanosoma brucei brucei with AQP2/3-dd knock out to EC50 for bloodstream trypomastigote stage of wild-type Trypanosoma brucei brucei Lister 427; assay type: functional
[2] = test system: Trypanosoma brucei brucei; assay: Anti-parasitic activity against bloodstream trypomastigote stage of wild-type Trypanosoma brucei brucei Lister 427 after 48 hrs by resazurin-based assay; assay type: functional, organism-based; settings: Lister 427, 48 h
[3] = test system: Trypanosoma brucei brucei; assay: Resistance factor, ratio of EC50 for bloodstream trypomastigote stage of Trypanosoma brucei brucei AQP triple knock out to EC50 for bloodstream trypomastigote stage of wild-type Trypanosoma brucei brucei Lister 427; assay type: functional
[4] = Protein binding in mouse serum up to 24 hrs by LC/MS analysis; assay type: ADME, cell-free; settings: read-out: PB (converted)
[5] = test system: Trypanosoma brucei brucei; assay: Anti-parasitic activity against bloodstream trypomastigote stage of wild-type Trypanosoma brucei brucei Lister 427 after 48 hrs in presence of 5 mM glycerol by resazurin-based assay; assay type: functional, organism-based; settings: Lister 427, 48 h
[6] = Stability in mouse serum assessed as parent compound recovery after 15 mins by LC/MS analysis; assay type: ADME, cell-free; settings: read-out: Drug recovery
Trypanosoma brucei = assay: Anti-parasitic activity against bloodstream trypomastigote stage of pentamidine/diminazene/melaminophenyl arsenical resistant Trypanosoma brucei B48 after 48 hrs by resazurin-based assay; assay type: functional, organism-based; settings: B48, 48 h
[7] = Selectivity index, ratio of CC50 for HFF cells to EC50 for bloodstream form of Trypanosoma congolense IL3000; assay type: toxicity; settings: human, read-out: Ratio CC50/EC50
[8] = Inhibition of recombinant N-terminal His6 tagged SUMO-fused Trypanosoma brucei brucei TC221 TAO MTS deletion mutant expressed in Escherichia coli FN102 preincubated for 2 mins followed by ubiquinol-1 addition measured over 2 mins by double beam-dual wavelength UV-spectrophotometry
[9] = test system: Trypanosoma brucei brucei; assay: Anti-parasitic activity against bloodstream trypomastigote stage of Trypanosoma brucei brucei with AQP2/3-dd knock out after 48 hrs by resazurin-based assay; assay type: functional, organism-based
[10] = Stability in mouse serum assessed as parent compound remaining after 0.25 to 24 hrs by LC/MS analysis; assay type: ADME, cell-free
[11] = test system: Trypanosoma brucei brucei; assay: Anti-parasitic activity against bloodstream trypomastigote stage of Trypanosoma brucei brucei with AQP triple knock out after 48 hrs by resazurin-based assay; assay type: functional, organism-based
[12] = Resistance factor, ratio of EC50 for bloodstream trypomastigote stage of pentamidine/diminazene/melaminophenyl arsenical resistant Trypanosoma brucei B48 to EC50 for bloodstream trypomastigote stage of wild-type Trypanosoma brucei brucei Lister 427; assay type: functional
[13] = test system: Trypanosoma brucei brucei; assay: Resistance factor, ratio of EC50 for bloodstream trypomastigote stage of wild-type Trypanosoma brucei brucei Lister 427 in presence of 5 mM glycerol to EC50 for bloodstream trypomastigote stage of wild-type Trypanosoma brucei brucei Lister 427; assay type: functional
[14] = Cytotoxicity against HFF cells assessed as reduction in cell viability after 30 hrs by resazurin-based assay; settings: human
[15] = Selectivity index, ratio of CC50 for HFF cells to EC50 for bloodstream trypomastigote stage of wild-type Trypanosoma brucei brucei Lister 427; assay type: toxicity; settings: human, read-out: Ratio CC50/EC50
Trypanosoma congolense = assay: Anti-parasitic activity against bloodstream form of Trypanosoma congolense IL3000 after 48 hrs by resazurin-based assay; assay type: functional, organism-based; settings: IL3000, 48 h
[16] = Noncompetitive inhibition of recombinant N-terminal His6 tagged SUMO-fused Trypanosoma brucei brucei TC221 TAO MTS deletion mutant expressed in Escherichia coli FN102 preincubated for 2 mins followed by ubiquinol-1 addition measured over 2 mins by Lineweaver-Burk plot analysis
[17] = Cytotoxicity against HEK cells assessed as reduction in cell viability after 30 hrs by resazurin-based assay; settings: human
[18] = Selectivity index, ratio of CC50 for HEK cells to EC50 for bloodstream trypomastigote stage of wild-type Trypanosoma brucei brucei Lister 427; assay type: toxicity; settings: human, read-out: Ratio CC50/EC50
[19] = Non-competitive inhibition of Trypanosoma brucei brucei TC221 TAO expressed in Escherichia coli FN102 assessed as reduction in ubiquinoldependent oxygen consumption by spectrophotometry
[20] = test system: Trypanosoma brucei brucei; assay: Anti-parasitic activity against bloodstream trypomastigote stage of wild-type Trypanosoma brucei brucei Lister 427; assay type: functional
[21] = Stability in mouse serum assessed as compound hydrolysis after 1 hr by LC/MS analysis; assay type: ADME, cell-free; settings: read-out: Drug degradation

Compound | Ratio EC50 [1] | pEC50 [2] | Ratio EC50 [3] | pEC50 [5] | pEC50 (Trypanosoma brucei) | pIC50 [8] | pEC50 [9] | pEC50 [11] | Ratio EC50 [12] | Ratio EC50 [13] | pEC50 (Trypanosoma congolense) | pKi [16] | CC50 at 30 h [17] | selectivity ratio [18] | other results
O=Cc1ccc(OCCCCCCCCCCCCCC[P+](c2ccccc2)(c2ccccc2)c2ccccc2)cc1O.[Br-] | 0.32 | 6.88 | 0.4 | 7.17 | 6.96 | 6.66 | 7.38 | 7.28 | 0.8 | 0.51 | 6.57 |  |  |  | fraction unbound at 24 h [4]: 0.1; remaining at 0.25 h [6]: 12%; selectivity ratio [7]: > 740; Stability [10]: Stable; CC50 at 30 h [14]: > 200000 nM; selectivity ratio [15]: > 1500
O=C(OCCCCCCCCCCOC(=O)c1ccc(O)cc1O)c1ccc(O)cc1O | 0.5 | 4.31 | 0.14 | 4.91 | 4.38 | 8.16 | 4.61 | 5.15 | 0.85 | 0.25 | < 4.00 | 7.47 | > 400000 nM | > 8 | 
C/C(=C\Cc1c(O)c(Cl)c(C)c(C=O)c1O)CC/C=C(\C)[C@@H]1CC(=O)C(C)(C)O1 [ASCOFURANONE] |  |  |  |  |  | 8.70 |  |  |  |  |  |  |  |  | pKi [19]: 8.62; MIC [5]: 30 µM; MIC [20]: 250 µM (≈ 105 µg/mL)
O=COCCCCCCCCCCCCCCCCOC(=O)c1ccc(O)cc1O | 0.42 | 4.92 | 0.11 | 5.29 | 4.89 | 7.84 | 5.30 | 5.90 | 1.1 | 0.43 | < 4.00 | 7.15 | > 400000 nM | > 34 | 
O=C(OCCCCCCCCCCCCCC[n+]1cccc2ccccc21)c1ccc(O)cc1O |  |  |  |  |  | 5.87 |  |  |  |  |  |  |  |  | metabolised at 1 h [21]: 50%
